Read-outs that look alike come from different tables or passages of the source.
How the values were obtained:
[1] = Plasma concentration profile over 8 hours in mice (LC/MS); type: in vivo, CD-1 Female Mice; conditions: mouse plasma; for half-life: female, CD-1, read-out: Elimination half-life (converted)
Experimental: FIG. 3 depicts a set of data expressing plasma concentration profile over 8 hours in mice administered either 60 mg/kg of TK-112690 ip or 240 mg/kg po by gavage. Plasma samples from 3 animals/timepoint were analyzed. CD-1 Female Mice (n=3) were dosed with either 60 (ip) or 240 (po) mg/kg TK-112690 in PBS. Blood samples were obtained at the designated timepoints, and the samples analyzed for drug using LC/MS.

[2] = system: surviving regenerating intestinal crypts; experiment: Small intestinal crypt survival in murine total-body irradiation (TBI) model of intestinal mucositis; type: in vivo, Mouse (Mus musculus) C57BL6; conditions: 12 Gy
From the text: The aim of the study whose results are provided in FIG. 2-6 was to determine the effect of TK-112690 on small intestinal crypt survival, in a murine total-body irradiation (TBI) model of intestinal mucositis.
• Animal Species: Mouse (Mus musculus) • Strain/substrain: C57BL6 (negative for Klebsiella oxytoca) • Source: Jackson Laboratories, MP-14, Bar Harbour, Me 04609, USA • Total animals: 40 males plus 5 spares • Body weight range: 18 to 25 g at start of treatment • Animal ages: 10 to 12 weeks at start of treatment • Housing: Animals were individually housed in rodent polycarbonated bins with bedding (irradiated Teklad sani chips) equipped with water bottles. Following group assignment, all cages were clearly labeled with a color-coded cage card indicating at least the study number and animal number. • Animal Identification: Each animal was individually identified using a permanent marker. • Group Animal Numbers: Each animal was given a four-number identification code. The first number corresponds to the respective dose group (1-4). The second number refers to whether the animal is the original animal, for instance the number 0, or a replacement, for instance 1, The third and fourth numbers identify the animal's rank within each group. • Room Environment: The animal room environment was set to maintain a temperature of 21±3° C., a relative humidity of 50±20%; and a light dark cycle of 12 hours light/12 hours dark, except during Study Plan-designated procedures. • Diet/Water: A standard certified commercial chow (Envigo Teklad Certified Irradiated Global Rodent Diet #2918C) was provided to the animals ad libitum except during designated procedures. Treats or fruits/vegetables were provided as part of the animal enrichment program. Concentrations of the contaminants (e.g., heavy metals, aflatoxin, organophosphate and chlorinated hydrocarbons) were routinely measured by the manufacturers. Acidified (pH between 2.75 and 3.25) municipal tap water (which had been exposed to ultraviolet light and purified by reverse osmosis) was provided to all animals ad libitum, except during designated procedures, via water bottles. Water bottles were changed at least every 3 days prior to irradiation and every 2 days after irradiation. Acidified water was changed every day after irradiation. During transportation and irradiation, animals were provided with food and water gel packs. Animals received water gel packs at least 2 days before transportation to acclimate to this type of hydration supplement and this procedure continued until necropsy. In addition, wetted food was provided to the animals on the bottom of the bins from Day 1 to the day of necropsy. • Acclimation: An acclimation period of at least 14 days was allowed between receipt of the animals and the start of dosing to accustom the animals to the laboratory environment. • Animal Assignment: During the acclimation period, animals were separately assigned to dose groups by a randomizing stratification system based on body weights. For logistical reasons, the animals were assigned to replicate subgroups, which may initiate dosing on different days.
The test item and reference item/vehicle are administered by intraperitoneal injection (ip) or oral gavage (po) 1.5 to 2 hour prior and 4 hours post irradiation and then twice daily (12 hours apart) for 4 consecutive days (Days 2 to 5), as shown below: […]

[3] = type: in vivo; conditions: TK-112690 60 mg/kg ip or 240 mg/kg po bid plus uridine 60 mg/kg vs PBS; 12 Gy; ip and po combined; p=0.012
From the text: • Animal Species: Mouse (Mus musculus) • Strain/substrain: C57BL6 (negative for Klebsiella oxytoca) • Source: Jackson Laboratories, MP-14, Bar Harbour, Me 04609, USA • Total animals: 40 males plus 5 spares • Body weight range: 18 to 25 g at start of treatment • Animal ages: 10 to 12 weeks at start of treatment • Housing: Animals were individually housed in rodent polycarbonated bins with bedding (irradiated Teklad sani chips) equipped with water bottles. Following group assignment, all cages were clearly labeled with a color-coded cage card indicating at least the study number and animal number. • Animal Identification: Each animal was individually identified using a permanent marker. • Group Animal Numbers: Each animal was given a four-number identification code. The first number corresponds to the respective dose group (1-4). […] Concentrations of the contaminants (e.g., heavy metals, aflatoxin, organophosphate and chlorinated hydrocarbons) were routinely measured by the manufacturers. […]
Mortality checks were recorded concomitantly with the cage-side observations (see below for clinical signs), during all phases of the study. […]

Cc1cn2c(nc1=O)O[C@H]1[C@H](O)[C@@H](CO)O[C@H]12 [TK-112690]
AUC0→Last ([1]; 60 mg/kg ip in PBS): Approximately 30 (micrograms/mL)*hour
AUC0→Last ([1]; 240 mg/kg po by gavage in PBS): ~40 (micrograms/mL)*hour
half-life ([1]; 60 mg/kg ip in PBS): ~2.5 h
half-life ([1]; 240 mg/kg po by gavage in PBS): ~2.5 h
number of surviving intestinal crypts in the jejunum, Z scores ([2]; TK-112690 60 mg/kg ip bid plus uridine 60 mg/kg vs PBS, p=0.029): ameliorates the mucosal damage in the jejunum
number of surviving intestinal crypts in the jejunum, Z scores ([2]; TK-112690 60 mg/kg ip or 240 mg/kg po bid (combined) plus uridine 60 mg/kg vs PBS, p=0.007): minimizes the mucosal damage in the jejunum
number of surviving intestinal crypts (jejunum, duodenum, ileum), Z scores ([2]; TK-112690 60 mg/kg ip or 240 mg/kg po bid plus uridine 60 mg/kg vs PBS, p=0.03): lessens the mucosal damage associated with radiation treatment
number of surviving intestinal crypts in the duodenum, Z scores ([2]; TK-112690 60 mg/kg ip or 240 mg/kg po bid plus uridine 60 mg/kg vs PBS, p=0.046): ameliorates the mucosal damage in the duodenum
number of surviving intestinal crypts in the jejunum, Z scores ([2]; TK-112690 240 mg/kg po bid plus uridine 60 mg/kg vs PBS, p=0.041): ameliorates the mucosal damage in the jejunum
difference in body weight between pre-treatment and day 6 (Z scores) [3]: modest, highly statistically significant (p=0.012) protection from weight loss

Reference: patent US12508265B2, “Methods and compositions for reducing radiation induced toxicity” (Tosk, Inc., priority 2018, dated 2025)
